Columns and labels:
[1] = target: Trichoderma reesei GH61B polypeptide (Trichoderma reesei, UniProt Q7Z9M7); assay: Variable pH PASC conversion assay (Examples 29, 30) with Trichoderma reesei GH61B polypeptide; type: biochemical; conditions: gallic acid 0.2% w/w + Trichoderma reesei GH61B polypeptide (10 mg/g) + beta-glucosidase (10 mg/g), 72 hours, 50° C.
[2] = test system: T. aurantiacus CEL5A endoglucanase II and P. brasilianum CEL3A beta-glucosidase; assay: Microcrystalline cellulose conversion assay I (Examples 8, 9) without GH61 polypeptide; type: biochemical, Thermoascus aurantiacus; Penicillium brasilianum; conditions: dioxy compound 0.3% w/w + endoglucanase II + beta-glucosidase (5 mg/g each), no GH61; 96 hours, at either 50° C. or 60° C.
Experimental: (§1) A 5% microcrystalline cellulose slurry was prepared by addition of 2.5 g of AVICEL®PH101 (Sigma-Aldrich, St. Louis, Mo., USA) to a graduated 50 ml screw-cap conical tube followed by 15 ml of 1 M sodium acetate pH 5 and 1 ml of 100 mM MnSO4 and approximately 20 ml of deionizer water. Each conical tube was then mixed thoroughly by shaking/vortexing, and adjusted to 50 ml total with deionized water and mixed again. Contents of the tube were then quickly transferred to a 100 ml beaker and stirred rapidly with a magnetic stirrer. Five hundred μl aliquots of the 5% AVICEL® slurry were pipetted into wells of a 2.0 ml 96-deepwell plate (Axygen, Union City, Calif., USA) using a 1000 μl micropipette with a wide aperture tip (end of tip cut off about 2 mm from the base). Three hundred μl of either deionized water or a 1% dioxy compound solution (dissolved in deionized water) was added to each well.
(§2) The dioxy compounds assayed include caffeic acid (Sigma-Aldrich, St. Louis, Mo., USA), dichlorophenolindophenol (DCPIP; Sigma-Aldrich, St. Louis, Mo., USA), ethyl gallate (Sigma-Aldrich, St. Louis, Mo., USA), gallic acid (Sigma-Aldrich, St. Louis, Mo., USA), 3,4-dihydroxybenzoic acid (Sigma-Aldrich, St. Louis, Mo., USA), pyrocatechol (Sigma-Aldrich, St. Louis, Mo., USA), pyrogallol (Sigma-Aldrich, St. Louis, Mo., USA), sinapinic acid (3,5 dimethoxy-4-hydroxy cinnamic acid; Apin Chemicals LTD, Abingdon, UK), and tannic acid (Sigma-Aldrich, St. Louis, Mo., USA).
(§3) Enzyme mixtures were prepared and then added simultaneously to all wells in a volume of 200 μl, for a total of 1 ml in each reaction. […] All experiments reported were performed in triplicate.
(§4) After approximately 4 days, the deep-well plate was removed from the incubator and chilled overnight to 4° C. The plate was then mixed well by inversion and briefly centrifuged at 52×g in a SORVALL® RT7 centrifuge (Thermo Fisher Scientific, Waltham, Mass., USA) for 10 seconds. Samples were then mixed by pipetting, and 200 μl from each well were transferred to a MULTISCREEN® HV centrifuge filter plate assembly (Millipore, Bedford, Mass., USA). The centrifuge filter plate assembly was centrifuged at 2000 rpm in a SORVALL® RT7 centrifuge for 20 minutes. […] Sugars were detected using a refractive index detector (Agilent Technologies, Inc., Santa Clara, Calif., USA) with quantification by integration compared to purified sugar standards.
(§5) In this assay only glucose was measured since beta-glucosidase was at high levels in all samples but the controls.
(§6) A limit digest was performed to determine the total concentration accessible glucose equivalents using 100 mg of T. reesei cellulase (CELLIC™ CTec, Novozymes A/S, Bagsvaerd, Denmark) per gram cellulose, Triplicate data points were averaged and standard deviation was calculated.

[3] = test system: T. terrestris GH61E polypeptide; assay: Microcrystalline cellulose conversion assay I (Examples 8, 9) with T. terrestris GH61E polypeptide; type: biochemical, Thielavia terrestris; conditions: dioxy compound 0.3% w/w + T. terrestris GH61E polypeptide (10 mg/g) + endoglucanase II + beta-glucosidase (5 mg/g each), 96 hours
Experimental: as §1, §2, §3, §4, §5, §6

[4] = target: T1, Aspergillus oryzae CEL3A beta-glucosidase (Aspergillus oryzae, UniProt Q2UUD6); assay: Variable pH PASC conversion assay (Examples 29, 30) without GH61 polypeptide; type: biochemical; conditions: gallic acid 0.2% w/w + Aspergillus oryzae CEL3A beta-glucosidase (10 mg/g), no GH61, 72 hours, 50° C.
T1 construct: made in house
T1 sequence (Q2UUD6 20-861): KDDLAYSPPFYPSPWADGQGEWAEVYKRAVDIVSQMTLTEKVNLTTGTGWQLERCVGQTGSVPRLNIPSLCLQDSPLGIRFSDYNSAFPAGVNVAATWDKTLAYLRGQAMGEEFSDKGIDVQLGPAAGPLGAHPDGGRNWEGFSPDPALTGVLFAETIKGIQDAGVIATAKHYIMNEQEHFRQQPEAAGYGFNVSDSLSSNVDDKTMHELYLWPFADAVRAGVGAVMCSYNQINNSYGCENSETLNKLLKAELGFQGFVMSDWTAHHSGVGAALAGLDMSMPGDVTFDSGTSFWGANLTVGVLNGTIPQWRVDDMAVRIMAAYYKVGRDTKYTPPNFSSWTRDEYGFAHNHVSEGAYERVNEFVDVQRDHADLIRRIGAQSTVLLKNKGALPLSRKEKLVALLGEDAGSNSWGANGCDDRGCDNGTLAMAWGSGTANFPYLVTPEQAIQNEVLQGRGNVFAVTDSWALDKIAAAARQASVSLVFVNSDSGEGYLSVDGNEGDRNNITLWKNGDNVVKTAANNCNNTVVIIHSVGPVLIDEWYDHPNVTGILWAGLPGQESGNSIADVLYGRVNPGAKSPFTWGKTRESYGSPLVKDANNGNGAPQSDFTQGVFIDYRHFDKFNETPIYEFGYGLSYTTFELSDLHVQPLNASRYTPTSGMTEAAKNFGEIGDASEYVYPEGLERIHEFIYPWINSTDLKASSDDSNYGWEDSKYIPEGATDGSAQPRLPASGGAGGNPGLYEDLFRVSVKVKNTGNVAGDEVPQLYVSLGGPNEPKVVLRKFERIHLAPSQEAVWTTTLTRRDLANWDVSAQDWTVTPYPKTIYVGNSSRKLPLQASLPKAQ

[5] = target: T2, T. aurantiacus GH61A polypeptide (Thermoascus aurantiacus, UniProt G3XAP7, N13Y); assay: Phosphoric acid swollen cellulose (PASC) conversion assay (Examples 20, 21); type: biochemical; conditions: 72 hours, 50° C.
Experimental: A 1.0% PASC slurry was prepared as described in Example 17. Ten ml of the 1.0% PASC slurry, 10 ml of H2O, and […] of dioxy compound were thoroughly mixed by shaking,
Five hundred μl aliquots of the 0.50% phosphoric acid swollen cellulose/0.05% dioxy compound slurry were pipetted into wells of a 2.0 ml 96-deepwell plate (Axygen, Union City, Calif., USA) using a 1000 μl micropipette with a wide aperture tip (end of tip cut off about 2 mm from the base). One hundred μl of 10 mM MnSO4-500 mM sodium acetate pH 5 were then added to each well. Two hundred μl of deionized water were added to each well. Enzyme mixtures were prepared and then added simultaneously to all wells in a volume of 200 μl, for a total of 1 ml in each reaction. […] All experiments reported were performed in triplicate.
Primary analysis of the hydrolysis reactions was performed using an AGILENT® 1100 HPLC with CHEMSTATION® software equipped with an AMINEX™ HPX-87H column. After approximately 4 days, the deep-well plate was removed from the incubator and chilled overnight to 4° C. The plate was then mixed well by inversion and briefly centrifuged 52×g in a SORVALL® RT7 centrifuge for 10 seconds. Samples were then mixed by pipetting, and 200 μl from each well were transferred to a MULTISCREEN® HV centrifuge filter plate assembly. The centrifuge filter plate assembly was centrifuged at 2000 rpm in a SORVALL® RT7 centrifuge for 20 minutes. […] Sugars were detected using a refractive index detector with quantification by integration compared to purified sugar standards.
All HPLC data processing was performed using MICROSOFT EXCEL™ software. […] In this assay only glucose was measured since beta-glucosidase was at high levels in all samples but the controls. Percent conversion was calculated using Equation 1. Triplicate data points were averaged and standard deviation was calculated.
The PASC assay was performed as described in Example 20.
Data were collected and analyzed, as described in Example 20, after 72 hours of incubation at 50° C.

[6] = target: T2, T. aurantiacus GH61A polypeptide; assay: Microcrystalline cellulose conversion assay I (Examples 8, 9) with T. aurantiacus GH61A polypeptide; type: biochemical; conditions: T. aurantiacus GH61A polypeptide (10 mg per g cellulose) + endoglucanase II + beta-glucosidase (5 mg/g each), no dioxy compound, 96 hours
Experimental: A 5% microcrystalline cellulose slurry was prepared by addition of 2.5 g of AVICEL®PH101 (Sigma-Aldrich, St. Louis, Mo., USA) to a graduated 50 ml screw-cap conical tube followed by 15 ml of 1 M sodium acetate pH 5 and 1 ml of 100 mM MnSO4 and approximately 20 ml of deionizer water. Each conical tube was then mixed thoroughly by shaking/vortexing, and adjusted to 50 ml total with deionized water and mixed again. Contents of the tube were then quickly transferred to a 100 ml beaker and stirred rapidly with a magnetic stirrer. […]
After approximately 4 days, the deep-well plate was removed from the incubator and chilled overnight to 4° C. […] Sugars were detected using a refractive index detector (Agilent Technologies, Inc., Santa Clara, Calif., USA) with quantification by integration compared to purified sugar standards.
as §5, §6

Chain of Trichoderma reesei GH61B polypeptide (Q7Z9M7 20-249): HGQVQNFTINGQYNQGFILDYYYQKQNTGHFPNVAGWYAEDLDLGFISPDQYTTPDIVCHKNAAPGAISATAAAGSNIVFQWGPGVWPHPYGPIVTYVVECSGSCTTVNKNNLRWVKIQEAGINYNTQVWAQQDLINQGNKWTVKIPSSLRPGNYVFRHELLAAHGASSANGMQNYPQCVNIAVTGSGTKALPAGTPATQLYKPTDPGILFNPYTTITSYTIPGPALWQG

O=C(O)c1cc(O)c(O)c(O)c1 [gallic acid]
conversion of phosphoric acid swollen cellulose ([1]; pH 4): 13.6±0.2% | conversion of phosphoric acid swollen cellulose ([1]; pH 5): 15.9±0.6% | conversion of phosphoric acid swollen cellulose ([1]; pH 6): 12.7±0.4% | conversion of phosphoric acid swollen cellulose ([1]; pH 7.5): 3.9±1.0% | change in conversion of microcrystalline cellulose compared to the enzymes in the absence of the dioxy compound [2]: no significant change | conversion of microcrystalline cellulose ([3]; 50° C.): 9.3±0.1% | conversion of microcrystalline cellulose ([3]; 60° C.): 7.9±0.1% | conversion of phosphoric acid swollen cellulose ([4]; pH 4): 1.6±0.2% | conversion of phosphoric acid swollen cellulose ([4]; pH 5): 2.0±0.7% | conversion of phosphoric acid swollen cellulose ([4]; pH 6): 1.2±0.5% | conversion of phosphoric acid swollen cellulose ([4]; pH 7.5): 1.9±1.2%

B1: T. aurantiacus GH61A polypeptide: GH61A polypeptide having cellulolytic enhancing activity (SEQ ID NO: 14), recombinantly produced in Aspergillus oryzae JaL250 (protein, listed as Thermoascus aurantiacus)
chain: MSFSKIIATAGVLASASLVAGHGFVQNIVIDGKYYGGYLVNQYPYMSNPPEVIAWSTTATDLGFVDGTGYQTPDIICHRGAKPGALTAPVSPGGTVELQWTPWPDSHHGPVINYLAPCNGDCSTVDKTQLEFFKIAESGLINDDNPPGIWASDNLIAANNSWTVTIPTTIAPGNYVLRHEIIALHSAQNQDGAQNYPQCINLQVTGGGSDNPAGTLGTALYHDTDPGILINIYQKLSSYIIPGPPLYTG
conversion of phosphoric acid swollen cellulose ([5]; T. aurantiacus GH61A polypeptide (20 mg/g) + A. oryzae CEL3A beta-glucosidase (20 mg/g), no dioxy compound): 2.3±0.6% | conversion of PASC ([5]; T. aurantiacus GH61A polypeptide (20 mg/g) alone): 1.5±1.1% | conversion of microcrystalline cellulose ([6]; 50° C.): 2.2±0.1% | conversion of microcrystalline cellulose ([6]; 60° C.): 2.6±0.1%

Reference: patent US9394555B2, “Compositions comprising a polypeptide having cellulolytic enhancing activity and a dioxy compound and uses thereof” (priority 2010, dated 2016)
